One molecule from patent publication EP4744649A1, “SUSTAINED-RELEASE INJECTABLE COMPOSITION FOR TREATING OR PREVENTING NEUROLOGICAL DISORDERS, AND METHOD FOR PREPARING SAME” (Inventage Lab Inc., priority 2023, dated 2025) can be followed below.

Structures are written as SMILES.

Data set [1] is described as follows: Body weight change in the PTZ seizure study. The class given is in vivo, rats. The settings on record: 60 mg/head IP (G2); difference not statistically significant. The method, then:
(§1) After the completion of acclimatization, the rats were divided into groups. On day 1 (D1), the test substances G1 to G4 were administered intraperitoneally and subcutaneously, and 30 minutes later, PTZ (pentylenetetrazole, Sigma, USA) dissolved in 0.9% sterile saline was administered intraperitoneally at a dose of 37.5 mg/kg to induce epileptic seizures. In the normal group, only the same amount of saline was administered. Then, PTZ was repeatedly administered at time points D2, D3, D5, D7, D14, D21, and D28 to induce epileptic seizures. The intensity of the seizures was graded and evaluated for 30 minutes immediately after PTZ administration at each time point according to the following criteria: [Table 7]
During the test period, body weight continued to increase in all the groups without decrease.

The subject of data set [2] is PTZ-induced seizure rat model. As to the kind of experiment: PTZ (pentylenetetrazole)-induced epileptic seizure model: seizure intensity, grade distribution, mortality. The class given is in vivo, rats. To be noted: for seizure-induced mortality: 10 animals; for seizure intensity: 60 mg/head IP on D1 and D14 (G2). The method, then: In order to evaluate the seizure-suppressing effect of administration of the microparticles of the present invention in an epilepsy-induced model, administration groups were set up as follows.
G3 and G4 were administered to rats at different doses using the above-described Example 7.
as §1

As to `C=C(C)[C@@H]1CCC(C)=C[C@H]1c1c(O)cc(CCCCC)cc1O` [CBD solution, cannabidiol], the weight gain result in data set [1] is “slightly smaller than that in the other groups”. The seizure-induced mortality result in data set [2] (60 mg/head IP (G2), until week 3) is given as “no deaths occurred”; in data set [2] (60 mg/head IP (G2), week 4), “three animals died”. Further, the “individuals with severe seizures” value in data set [2] (60 mg/head IP (G2), week 2, at the time of additional administration) is reported as 10%. The “individuals with grade-5 seizures” value in data set [2] (60 mg/head IP (G2), week 4) is on record as “more than half of individuals”. For the same molecule, the seizure intensity is on record as 2.4 grade in data set [2] (day 1, stages 0 to 6); 3.9 grade in data set [2] (week 1); 2.9 grade in data set [2] (week 2, after additional administration); 4.9 grade in data set [2] (weeks 3 and 4).
